Test results taken from patent US9815819B2, “Complement pathway modulators and uses thereof” (priority 2012, dated 2017).

These molecules were tested against Recombinant human factor D (Homo sapiens (Human), UniProt P00746) (assay: Human Complement Factor D Assay: Method 1). Details: Factor D inhibition, Method 1: 10 nM factor D, 1 hour incubation with compound at room temperature, substrate Z-Lys-thiobenzyl, fluorescence readout; read-out: IC50.
Assay type: biochemical
Procedure: Recombinant human factor D (expressed in E. coli and purified using standard methods) at 10 nM concentration is incubated with test compound at various concentrations for 1 hour at room temperature in 0.1 M Hepes buffer, pH 7.5, containing 1 mM MgCl2, 1 M NaCl and 0.05% CHAPS. […] IC50 values are calculated from percentage of inhibition of complement factor D-activity as a function of test compound concentration.

Chain of Recombinant human factor D (P00746 26-253): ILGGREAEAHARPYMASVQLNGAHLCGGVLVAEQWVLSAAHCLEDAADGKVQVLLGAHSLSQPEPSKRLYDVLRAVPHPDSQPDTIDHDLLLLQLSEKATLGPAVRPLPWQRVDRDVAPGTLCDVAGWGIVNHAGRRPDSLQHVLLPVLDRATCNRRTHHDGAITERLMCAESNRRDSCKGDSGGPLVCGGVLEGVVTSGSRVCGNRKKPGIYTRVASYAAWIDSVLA

Structure (SMILES)	IC50
NC(=O)c1nn(CC(=O)N2[C@@H]3C[C@@H]3C[C@H]2C(=O)N[C@H]2C[C@]2(F)c2ccccc2)c2ccccc12 [Example 38, 1-{2-[(1R,3S,5R)-3-((1S,2S)-2-fluoro-2-phenyl-cyclopropylcarbamoyl)-2-aza-bicyclo[3.1.0]hex-2-yl]-2-oxo-ethyl}-1H-indazole-3-carboxylic acid amide]	0.635 µM
CC(=O)c1nn(CC(=O)N2[C@@H]3C[C@@H]3C[C@H]2C(=O)N[C@@H]2C[C@H]2c2ccccc2Cl)c2cnccc12 [Example 65, (1R,3S,5R)-2-[2-(3-Acetyl-pyrazolo[3,4-c]pyridin-1-yl)-acetyl]-2-aza-bicyclo[3.1.0] hexane-3-carboxylic acid [(1R,2S)-2-(2-chloro-phenyl)-cyclopropyl]-amide]	0.03 µM
CC(=O)c1nn(CC(=O)N2[C@H](C(=O)N[C@@H]3C[C@H]3c3ccccc3)C[C@@]3(CO)C[C@@H]23)c2cnccc12 [Example 29, (1R,3S,5S)-2-[2-(3-Acetyl-pyrazolo[3,4-c]pyridin-1-yl)-acetyl]-5-hydroxymethyl-2-aza-bicyclo[3.1.0]hexane-3-carboxylic acid((1R,2S)-2-phenyl-cyclopropyl)-amide]	0.119 µM
NC(=O)c1nn(CC(=O)N2C[C@H](F)C[C@H]2C(=O)N[C@@H]2C[C@H]2c2ccc(Cl)cc2)c2cnccc12 [Example 72, 1-(2-{(2S,4R)-2-[(1R,2S)-2-(4-Chloro-phenyl)-cyclopropylcarbamoyl]-4-fluoro-pyrrolidin-1-yl}-2-oxo-ethyl)-1H-pyrazolo[3,4-c]pyridine-3-carboxylic acid amide]	0.309 µM
CC(=O)c1nn(CC(=O)N2[C@@H]3C[C@@H]3C[C@H]2C(=O)N[C@@H]2C[C@H]2c2ccccc2)c2ccccc12 [Example 2, (1R,3S,5R)-2-[2-(3-Acetyl-indazol-1-yl)-acetyl]-2-aza-bicyclo[3.1.0] hexane-3-carboxylic acid ((1R,2S)-2-phenyl-cyclopropyl)-amide]	0.029 µM
CC(=O)c1nn(CC(=O)N2[C@@H]3C[C@@H]3C[C@H]2C(=O)NC2CC2c2cccc(C(F)(F)F)c2)c2cnccc12 (stereo partly drawn) [Example 33, (1R,3S,5R)-2-[2-(3-Acetyl-pyrazolo[3,4-c]pyridin-1-yl)-acetyl]-2-aza-bicyclo[3.1.0] hexane-3-carboxylic acid [2-(3-trifluoromethyl-phenyl)-cyclopropyl]-amide]	0.55 µM
Cc1cc2c(C(N)=O)nn(CC(=O)N3[C@@H]4C[C@@H]4C[C@H]3C(=O)N[C@@H]3C[C@H]3c3ccccc3Cl)c2cn1 [Example 73, 1-(2-{(1R,3S,5R)-3-[(1R,2S)-2-(2-Chloro-phenyl)-cyclopropylcarbamoyl]-2-aza-bicyclo[3.1.0]hex-2-yl}-2-oxo-ethyl)-5-methyl-1H-pyrazolo[3,4-c]pyridine-3-carboxylic acid amide]	0.045 µM
CC(=O)c1nn(CC(=O)N2[C@H](C(=O)N[C@@H]3C[C@H]3c3ccccc3Cl)C[C@@]3(CO)C[C@@H]23)c2cnccc12 [Example 31, (1R,3S,5S)-2-[2-(3-Acetyl-pyrazolo[3,4-c]pyridin-1-yl)-acetyl]-5-hydroxymethyl-2-aza-bicyclo[3.1.0]hexane-3-carboxylic acid[(1R,2S)-2-(2-chloro-phenyl)-cyclopropyl]-amide]	0.037 µM
CC(=O)c1nn(CC(=O)N2[C@@H]3C[C@@H]3C[C@H]2C(=O)N[C@@H]2C[C@H]2c2ccccc2Cl)c2ncccc12 [Example 66, (1R,3S,5R)-2-[2-(3-Acetyl-pyrazolo[3,4-b]pyridin-1-yl)-acetyl]-2-aza-bicyclo[3.1.0] hexane-3-carboxylic acid [(1R,2S)-2-(2-chloro-phenyl)-cyclopropyl]-amide]	0.044 µM
NC(=O)c1nn(CC(=O)N2[C@@H]3C[C@@H]3C[C@H]2C(=O)N[C@@H]2C[C@H]2c2ccccc2Cl)c2cnccc12 [Example 67, 1-(2-{(1R,3S,5R)-3-[(1R,2S)-2-(2-Chloro-phenyl)-cyclopropylcarbamoyl]-2-aza-bicyclo[3.1.0]hex-2-yl}-2-oxo-ethyl)-1H-pyrazolo[3,4-c]pyridine-3-carboxylic acid amide]	0.035 µM
CC(=O)c1nn(CC(=O)N2[C@@H]3C[C@@H]3C[C@H]2C(=O)N[C@@H]2C[C@H]2c2ccccc2F)c2ncccc12 [Example 63, (1R,3S,5R)-2-[2-(3-Acetyl-pyrazolo[3,4-b]pyridin-1-yl)-acetyl]-2-aza-bicyclo[3.1.0] hexane-3-carboxylic acid [(1R,2S)-2-(2-fluoro-phenyl)-cyclopropyl]-amide]	0.064 µM
CC(=O)c1nn(CC(=O)N2[C@@H]3C[C@@H]3C[C@H]2C(=O)N[C@H]2C[C@@H]2c2ccccc2F)c2ncccc12 [Example 64, (1R,3S,5R)-2-[2-(3-Acetyl-pyrazolo[3,4-b]pyridin-1-yl)-acetyl]-2-aza-bicyclo[3.1.0] hexane-3-carboxylic acid [(1S,2R)-2-(2-fluoro-phenyl)-cyclopropyl]-amide]	0.791 µM
CC(=O)c1nn(CC(=O)N2[C@@H]3C[C@@H]3C[C@H]2C(=O)N[C@H]2C[C@]2(F)c2ccccc2)c2ncccc12 [Example 45, (1R,3S,5R)-2-[2-(3-Acetyl-pyrazolo[3,4-b]pyridin-1-yl)-acetyl]-2-aza-bicyclo[3.1.0] hexane-3-carboxylic acid ((1S,2S)-2-fluoro-2-phenyl-cyclopropyl)-amide]	10.4 µM
NC(=O)c1nn(CC(=O)N2C[C@H](F)C[C@H]2C(=O)N[C@@H]2C[C@H]2c2ccccc2)c2ccncc12 [Example 16, 1-{2-[(2S,4R)-4-Fluoro-2-((1R,2S)-2-phenyl-cyclopropylcarbamoyl)-pyrrolidin-1-yl]-2-oxo-ethyl}-1H-pyrazolo[4,3-c]pyridine-3-carboxylic acid amide]	1.24 µM
CC(=O)c1nn(CC(=O)N2[C@@H]3C[C@@H]3C[C@H]2C(=O)NC2CC(c3ccccc3)C2)c2ncccc12 (stereo partly drawn) [Example 35, (1R,3S,5R)-2-[2-(3-Acetyl-pyrazolo[3,4-b]pyridin-1-yl)-acetyl]-2-aza-bicyclo[3.1.0] hexane-3-carboxylic acid (3-phenyl-cyclobutyl)-amide]	0.902 µM
CO[C@H]1[C@@H](C(=O)N[C@@H]2C[C@H]2c2ccccc2)N(C(=O)Cn2nc(C(C)=O)c3ccccc32)C[C@@H]1F [Example 10, (2S,3S,4S)-1-[2-(3-Acetyl-indazol-1-yl)-acetyl]-4-fluoro-3-methoxy-pyrrolidine-2-carboxylic acid ((1R,2S)-2-phenyl-cyclopropyl)-amide]	0.04 µM
CC(=O)c1nn(CC(=O)N2[C@@H]3C[C@@H]3C[C@H]2C(=O)N[C@H]2C[C@@H]2c2cccc(Cl)c2F)c2ncccc12 [Example 57, (1R,3S,5R)-2-[2-(3-Acetyl-pyrazolo[3,4-b]pyridin-1-yl)-acetyl]-2-aza-bicyclo[3.1.0]hexane-3-carboxylic acid [(1S,2R)-2-(3-chloro-2-fluoro-phenyl)-cyclopropyl]-amide]	1.61 µM

Same assay, conditions: IC50 (μM), Factor D inhibition, Method 1: 10 nM factor D, 1 hour incubation with compound at room temperature, substrate Z-Lys-thiobenzyl, fluorescence readout

Structure (SMILES)	IC50
NC(=O)c1nn(CC(=O)N2[C@@H]3C[C@@H]3C[C@H]2C(=O)NC2CCCC(c3ccccc3)C2)c2ccccc12 (single isomer, unassigned) [Example 80]	0.475 µM
NC(=O)c1nn(CC(=O)N2[C@@H]3C[C@@H]3C[C@H]2C(=O)NC2CCCC(c3ccccc3)C2)c2ccccc12 (single isomer, unassigned) [Example 81]	5.65 µM
NC(=O)c1nn(CC(=O)N2[C@@H]3C[C@@H]3C[C@H]2C(=O)NC2CCCC(c3ccccc3)C2)c2ccccc12 (single isomer, unassigned) [Example 79]	0.114 µM
